Results: PubChem BioAssay (NCI)
“And” between values parts separate entries of the source, which are not always exact repeats. Identical values can stand only once.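 Tested at 5 concentrations; 48 h exposure; 96-well plates; endpoints linearly interpolated, else capped at highest concentration. GI50 is the concentration that inhibits growth by half. At the TGI there is no net growth.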

Key:
Assay in all cases: inhibition of tumour cell growth, NCI panel, 48 h
MDA-N = tested on: MDA-N
T-47D breast = tested on: T-47D breast
DMS 114 small cell lung = tested on: DMS 114 small cell lung
XF 498 CNS = tested on: XF 498 CNS
LXFL 529 NSCLC = tested on: LXFL 529 NSCLC
SNB-78 CNS = tested on: SNB-78 CNS
M19-MEL melanoma = tested on: M19-MEL melanoma
RXF-631 renal = tested on: RXF-631 renal
HOP-18 NSCLC = tested on: HOP-18 NSCLC

SMILES | TGI (T-47D breast) [µM] | GI50 (T-47D breast) [µM] | TGI (DMS 114 small cell lung) | TGI (LXFL 529 NSCLC) | TGI (SNB-78 CNS) [µM] | TGI (M19-MEL melanoma) | TGI (HOP-18 NSCLC) | other results
COc1cc(Cl)c(CC(=O)c2c[nH]c3ccccc23)cc1OC | > 100 | – | – | – | – | – | – | TGI (MDA-N): > 100 µM
COC1=C(OC)C(=O)C(C/C=C(\C)CC/C=C(\C)CC/C=C(\C)CC/C=C(\C)CC/C=C(\C)CC/C=C(\C)CC/C=C(\C)CC/C=C(\C)CC/C=C(\C)CCC=C(C)C)=C(C)C1=O | > 100 | > 100 | – | – | – | – | – | –
CS(=O)(=O)c1ccc(COP(N)(=O)N(CCCl)CCCl)cc1 (centres undefined) | – | – | > 100 µM | > 100 µM | > 100 | > 100 µM | – | TGI (XF 498 CNS): > 100 µM
NC1=NC(SCc2ccccc2CCl)c2ncn(Cc3ccccc3CCl)c2N1 (centres undefined) | 3.34 | 1.54 | – | – | – | – | – | –
CC1=C(CO)C(=O)O[C@@H]([C@@H](C)[C@H]2CC[C@H]3[C@@H]4C[C@H]5O[C@]56[C@@H](O)C=CC(=O)[C@]6(C)[C@H]4CC[C@]23C)C1 | 2.5 | 0.5 | 1.95 µM | 1.26 µM | – | 3.01 µM | – | TGI (XF 498 CNS): 2.82 µM
CN1CCN(C(=O)c2ccc(NC(=O)Nc3ccc(-c4nc(N5CCOCC5)c5cccn5n4)cc3)cc2)CC1 | 0.0567 | 0.0126 | – | – | – | – | – | –
Cc1ccc(SSCC(O)C(O)CSSc2ccc(C)cc2)cc1 (centres undefined) | – | – | 5.14 µM and 20.4 µM | 19 µM and 22.9 µM | 52.6 | 25.5 µM and 36.9 µM | 31.9 µM and 53.6 µM | GI50 (DMS 114 small cell lung): 2.07 µM and 7.05 µM; GI50 (RXF-631 renal): 10.1 µM and 3.4 µM; TGI (RXF-631 renal): 22.2 µM and 15.7 µM; TGI (XF 498 CNS): 26.7 µM and 31.4 µM; GI50 (HOP-18 NSCLC): 13.5 µM and 27.2 µM
CN1CCN=C1c1nnn(-c2ccc([N+](=O)[O-])cc2)c1-c1ccccc1 | – | – | > 100 µM | > 100 µM | > 100 | > 100 µM | > 100 µM | TGI (XF 498 CNS): > 100 µM
COc1ccc(-c2cc3ccccc3[nH]c2=O)cc1OC | – | – | – | > 100 µM | > 100 | > 100 µM | > 100 µM | TGI (XF 498 CNS): > 100 µM
O=C1CC(C2(O)C(=O)Nc3ccc([N+](=O)[O-])cc32)c2ccccc21 (centres undefined) | – | – | 23.9 µM | 76.2 µM | > 100 | 78.7 µM | > 100 µM | TGI (RXF-631 renal): 31.8 µM
O=C1C(Cl)=C(Cl)C(=O)N1c1ccc(Cl)c(Cl)c1Cl | – | – | > 100 µM | 88 µM | > 100 | > 100 µM | > 100 µM | TGI (RXF-631 renal): > 100 µM
Cc1c(Nc2nccc3cc(CN4CC[C@@H](O)C4)cnc23)cccc1-c1cccc(-c2nc3cc(CN4CC[C@@H](C(=O)O)C4)cc(C#N)c3o2)c1C | > 100 | > 100 | – | – | – | – | – | –
O=S(=O)(/N=S(/Nc1ccccc1)C(F)(F)Cl)c1ccccc1 (centres undefined) | > 100 | – | – | – | – | – | – | TGI (MDA-N): > 100 µM
COc1cc2c(cc1OC)C(C(CBr)CBr)N(C1CCCC1)CC2 (centres undefined) | – | – | – | > 100 µM | – | > 100 µM | – | TGI (XF 498 CNS): > 100 µM
COc1ccc(N2C(=O)[C@@H](N=[N+]=[N-])[C@@H]2[C@H]2COC(C)(C)O2)cc1 | – | – | > 100 µM | > 100 µM | > 100 | > 100 µM | > 100 µM | –
COc1cc(C)cc(C(=O)/C=C/c2ccccc2)c1O | 44.6 | – | – | – | – | – | – | TGI (MDA-N): 55.2 µM
Cc1cc(=O)[nH]c(NNC(C#N)c2ccccc2O)n1 (centres undefined) | – | – | 60.9 µM | – | – | > 100 µM | > 100 µM | –
COc1cc(/C=C/C(=O)CC(=O)/C=C/c2cc(OC)c(O)c(OC)c2)cc(OC)c1O | 21.5 | – | – | – | – | – | – | GI50 (MDA-N): 16.9 µM; TGI (MDA-N): 11.2 µM and > 100 µM
OCCCCC#Cc1ccccc1C#Cc1cccnc1 | > 100 | 34.7 | – | – | – | – | – | –

SMILES | TGI (T-47D breast) [µM] | GI50 (T-47D breast) [µM] | TGI (DMS 114 small cell lung) | TGI (LXFL 529 NSCLC) | TGI (SNB-78 CNS) [µM] | TGI (M19-MEL melanoma) | TGI (HOP-18 NSCLC) | other results
CC12CCC(=O)C(O1)C1C(=O)c3ccc4c(ccc5ccccc54)c3C(=O)C12 (centres undefined) | > 28.5 | 2.26 | – | – | – | – | – | –
O=C1C=CC(=O)c2c1ccc1c3ccccc3n(Cc3ccccc3)c21 | 64.6 | – | – | – | – | – | – | TGI (MDA-N): 54.4 µM
Cc1ccccc1-n1c(=S)[nH]c2c(sc(=O)n2-c2ccccc2C)c1=O | – | – | > 100 µM | > 100 µM | > 100 | > 100 µM | > 100 µM | TGI (RXF-631 renal): > 100 µM
CCCCCCCC(=O)[O-].CCCCCCCC(=O)[O-].N.N.N.N.[Co+3].[O-][Cl+3]([O-])([O-])[O-] | – | – | – | – | > 100 | – | > 100 µM | GI50 (SNB-78 CNS): > 100 µM; GI50 (HOP-18 NSCLC): 54.8 µM
N#CC1=C(N)NC(N2CCOCC2)=NC12Nc1ccccc1O2 (centres undefined) | > 100 | 80.3 | – | – | – | – | – | –
CCN(CC)CCCNCc1cc(-c2ccccc2)nc2cc(Cl)ccc12 | 4.73 | 1.7 | – | – | – | – | – | –
COc1ccc(NC(=O)CC(=O)N/N=C(\C)c2cc3ccccc3oc2=O)cc1 | – | – | > 100 µM | – | – | > 100 µM | > 100 µM | –
CCCCCCCCCCCNC=O | > 100 | – | – | – | – | – | – | TGI (MDA-N): > 100 µM
CC(C)C1(NC(=O)C2CC3c4cccc5[nH]cc(c45)CC3N(C)C2)OC2(O)C3CCCN3C(=O)C(Cc3ccccc3)N2C1=O (centres undefined) | > 100 | – | – | – | – | – | – | TGI (MDA-N): > 100 µM
O=C1NC(=O)C(=Cc2cn(Cc3ccccc3)c3ccccc23)C(=O)N1 | 20 | 4.09 | – | – | – | – | – | –
COc1ccc(Br)c(CN2CCc3ccccc32)c1OS(=O)(=O)c1ccc(C)cc1 | – | – | 53.5 µM | – | > 100 | > 100 µM | > 100 µM | TGI (RXF-631 renal): > 100 µM; TGI (XF 498 CNS): 92 µM
CCCCCCC(=O)C/C(CCC(=O)N(Cc1ccccc1)Cc1ccccc1)=N\NC(N)=O | – | – | > 100 µM | > 100 µM | > 100 | > 100 µM | > 100 µM | TGI (RXF-631 renal): > 100 µM; TGI (XF 498 CNS): > 100 µM
Nc1nc(Cl)nc2c1ncn2C1OC(CO)C(O)C1F (centres undefined) | > 100 | 10.1 | – | – | – | – | – | –
CC(C)=Cc1cc(CCC/C(C)=C/Cc2c(O)cc(C)c(C(=O)O)c2O)co1 | > 100 | – | – | – | – | – | – | –
CC(C)=Cc1cc(C)c2ccc(C)c3c2c1C(C)=C(O)C3=O | 52.8 | 16.9 | – | – | – | – | – | –
C=C(C)[C@@H]1CCc2c(O)c(O)c(=O)cc(C)c2C1 | 23.7 | – | – | – | – | – | – | TGI (MDA-N): > 100 µM
CC(/C=C/C(=O)c1sc(C(N)=S)nc1C)=C\c1ccccc1 | – | – | 35 µM | > 100 µM | > 100 | > 100 µM | > 100 µM | TGI (RXF-631 renal): > 100 µM; TGI (XF 498 CNS): > 100 µM
CC(=O)c1c[nH]c2ccc(-c3ccnc(Nc4ccc(NC(=O)C5CCCC5)c(CN5CCOCC5)c4)n3)cc12 | – | 0.0379 | – | – | – | – | – | –
